Laboratory results as given in patent US20260305610A1, “TRIAZOLE COMPOUND, AND PREPARATION METHOD THEREFOR, HERBICIDAL COMPOSITION AND USE THEREOF” (QINGDAO KINGAGROOT CHEMICAL COMPOUND CO., LTD., priority 2023, published 2026).

Columns and labels:
[1] = test system: monocotyledonous and dicotyledonous weeds; assay: Pre-emergence test experiment (weeds); assay type: in vivo; design: key: 9: completely dead; 8: growth control rate is greater than or equal to 90% and less than 100%; 7: growth control rate is greater than or equal to 80% and less than 90%; 6: growth control rate is greater than or equal to 70% and less than 80%; growth control rate is greater than or equal to 50% and less than 70%; 4: growth control rate is greater than or equal to 30% and less than 50%; growth control rate is greater than or equal to 20% and less than 30%; growth control rate is greater than or equal to 10% and less than 20%; growth control rate is less than 10%; 0: no effect; conditions: 30 g a.i./ha
major crops = assay: Pre-emergence test experiment (crops); assay type: in vivo; design: key: 9: completely dead; 8: growth control rate is greater than or equal to 90% and less than 100%; 7: growth control rate is greater than or equal to 80% and less than 90%; 6: growth control rate is greater than or equal to 70% and less than 80%; growth control rate is greater than or equal to 50% and less than 70%; 4: growth control rate is greater than or equal to 30% and less than 50%; growth control rate is greater than or equal to 20% and less than 30%; growth control rate is greater than or equal to 10% and less than 20%; growth control rate is less than 10%; 0: no effect; conditions: 30 g a.i./ha

## COCc1ccc(-n2cnc(C(F)(F)C(F)(F)F)n2)nc1Oc1cccc(OC(F)(F)F)c1 [Compound 77]
[1]
  Pre-emergence activity level (growth control rate) on Amaranthus retroflexus: 9
  Pre-emergence activity level (growth control rate) on Descurainia sophia: 9
  Pre-emergence activity level (growth control rate) on Digitaria sanguinalis: 8 (growth control rate is greater than or equal to 90% and less than 100%)
  Pre-emergence activity level (growth control rate) on Setaria viridis: 8 (growth control rate is greater than or equal to 90% and less than 100%)
  Pre-emergence activity level (growth control rate) on Solanum nigrum: 7 (growth control rate is greater than or equal to 80% and less than 90%)
  Pre-emergence activity level (growth control rate) on Veronica: 9
Major crops
  Pre-emergence plant damage level (growth control rate) on Corn: 0
  Pre-emergence plant damage level (growth control rate) on Cotton: 0
  Pre-emergence plant damage level (growth control rate) on Soybean: 0

## COc1cc(Oc2cccc(OC(F)(F)F)c2)nc(-n2cnc(C(F)(F)F)n2)c1 [Compound 78]
[1]
  Pre-emergence activity level (growth control rate) on Amaranthus retroflexus: 9
  Pre-emergence activity level (growth control rate) on Descurainia sophia: 9
  Pre-emergence activity level (growth control rate) on Digitaria sanguinalis: 9
  Pre-emergence activity level (growth control rate) on Setaria viridis: 8 (growth control rate is greater than or equal to 90% and less than 100%)
  Pre-emergence activity level (growth control rate) on Solanum nigrum: 8 (growth control rate is greater than or equal to 90% and less than 100%)
  Pre-emergence activity level (growth control rate) on Veronica: 9
Major crops
  Pre-emergence plant damage level (growth control rate) on Corn: 0
  Pre-emergence plant damage level (growth control rate) on Cotton: 0
  Pre-emergence plant damage level (growth control rate) on Soybean: 0

## Cc1ccc(-n2cnc(C(F)F)n2)nc1Oc1cccc(OC(F)F)c1 [Compound 79]
[1]
  Pre-emergence activity level (growth control rate) on Amaranthus retroflexus: 9
  Pre-emergence activity level (growth control rate) on Descurainia sophia: 9
  Pre-emergence activity level (growth control rate) on Digitaria sanguinalis: 9
  Pre-emergence activity level (growth control rate) on Setaria viridis: 9
  Pre-emergence activity level (growth control rate) on Solanum nigrum: 8 (growth control rate is greater than or equal to 90% and less than 100%)
  Pre-emergence activity level (growth control rate) on Veronica: 9
Major crops
  Pre-emergence plant damage level (growth control rate) on Corn: 0
  Pre-emergence plant damage level (growth control rate) on Cotton: 0
  Pre-emergence plant damage level (growth control rate) on Soybean: 0

## Cc1ccc(-n2cnc(C(F)F)n2)nc1Oc1ccc(F)c(OC(F)(F)F)c1 [Compound 80]
[1]
  Pre-emergence activity level (growth control rate) on Amaranthus retroflexus: 9
  Pre-emergence activity level (growth control rate) on Descurainia sophia: 9
  Pre-emergence activity level (growth control rate) on Digitaria sanguinalis: 9
  Pre-emergence activity level (growth control rate) on Setaria viridis: 8 (growth control rate is greater than or equal to 90% and less than 100%)
  Pre-emergence activity level (growth control rate) on Solanum nigrum: 9
  Pre-emergence activity level (growth control rate) on Veronica: 9
Major crops
  Pre-emergence plant damage level (growth control rate) on Corn: 0
  Pre-emergence plant damage level (growth control rate) on Cotton: 0
  Pre-emergence plant damage level (growth control rate) on Soybean: 0

## Cc1ccc(-n2cnc(C(F)F)n2)nc1Oc1cccc(OC(F)(F)F)c1 [Compound 83]
[1]
  Pre-emergence activity level (growth control rate) on Amaranthus retroflexus: 9
  Pre-emergence activity level (growth control rate) on Descurainia sophia: 9
  Pre-emergence activity level (growth control rate) on Digitaria sanguinalis: 9
  Pre-emergence activity level (growth control rate) on Setaria viridis: 9
  Pre-emergence activity level (growth control rate) on Solanum nigrum: 9
  Pre-emergence activity level (growth control rate) on Veronica: 9
Major crops
  Pre-emergence plant damage level (growth control rate) on Corn: 0
  Pre-emergence plant damage level (growth control rate) on Cotton: 0
  Pre-emergence plant damage level (growth control rate) on Soybean: 0

## Cc1ccc(-n2cnc(C(F)F)n2)nc1Oc1cccc(C(F)F)c1 [Compound 84]
[1]
  Pre-emergence activity level (growth control rate) on Amaranthus retroflexus: 9
  Pre-emergence activity level (growth control rate) on Descurainia sophia: 9
  Pre-emergence activity level (growth control rate) on Digitaria sanguinalis: 9
  Pre-emergence activity level (growth control rate) on Setaria viridis: 9
  Pre-emergence activity level (growth control rate) on Solanum nigrum: 9
  Pre-emergence activity level (growth control rate) on Veronica: 9
Major crops
  Pre-emergence plant damage level (growth control rate) on Corn: 0
  Pre-emergence plant damage level (growth control rate) on Cotton: 0
  Pre-emergence plant damage level (growth control rate) on Soybean: 0

## CCc1ccc(-n2cnc(C(F)(F)F)n2)nc1Oc1cccc(CF)c1 [Compound 85]
[1]
  Pre-emergence activity level (growth control rate) on Amaranthus retroflexus: 9
  Pre-emergence activity level (growth control rate) on Veronica: 9
Major crops
  Pre-emergence plant damage level (growth control rate) on Corn: 0
  Pre-emergence plant damage level (growth control rate) on Cotton: 0
  Pre-emergence plant damage level (growth control rate) on Soybean: 0

## CCc1ccc(-n2cnc(C(F)(F)F)n2)nc1Oc1ccc(F)c(OC(F)F)c1 [Compound 132]
[1]
  Pre-emergence activity level (growth control rate) on Amaranthus retroflexus: 9
  Pre-emergence activity level (growth control rate) on Descurainia sophia: 9
  Pre-emergence activity level (growth control rate) on Digitaria sanguinalis: 9
  Pre-emergence activity level (growth control rate) on Setaria viridis: 9
  Pre-emergence activity level (growth control rate) on Solanum nigrum: 9
  Pre-emergence activity level (growth control rate) on Veronica: 9
Major crops
  Pre-emergence plant damage level (growth control rate) on Corn: 0
  Pre-emergence plant damage level (growth control rate) on Cotton: 0
  Pre-emergence plant damage level (growth control rate) on Soybean: 0

## CCc1ccc(-n2cnc(C(F)(F)F)n2)nc1Oc1cccc(OC(F)F)c1 [Compound 133]
[1]
  Pre-emergence activity level (growth control rate) on Amaranthus retroflexus: 9
  Pre-emergence activity level (growth control rate) on Descurainia sophia: 9
  Pre-emergence activity level (growth control rate) on Digitaria sanguinalis: 9
  Pre-emergence activity level (growth control rate) on Setaria viridis: 9
  Pre-emergence activity level (growth control rate) on Solanum nigrum: 9
  Pre-emergence activity level (growth control rate) on Veronica: 9
Major crops
  Pre-emergence plant damage level (growth control rate) on Corn: 0
  Pre-emergence plant damage level (growth control rate) on Cotton: 0
  Pre-emergence plant damage level (growth control rate) on Soybean: 0

## CCc1ccc(-n2cnc(C(F)(F)F)n2)nc1Oc1ccc(F)c(C(F)(F)F)c1 [Compound 135]
[1]
  Pre-emergence activity level (growth control rate) on Amaranthus retroflexus: 9
  Pre-emergence activity level (growth control rate) on Descurainia sophia: 9
  Pre-emergence activity level (growth control rate) on Digitaria sanguinalis: 9
  Pre-emergence activity level (growth control rate) on Setaria viridis: 9
  Pre-emergence activity level (growth control rate) on Solanum nigrum: 9
  Pre-emergence activity level (growth control rate) on Veronica: 9
Major crops
  Pre-emergence plant damage level (growth control rate) on Corn: 0
  Pre-emergence plant damage level (growth control rate) on Cotton: 0
  Pre-emergence plant damage level (growth control rate) on Soybean: 0

## CCc1ccc(-n2cnc(C(F)(F)F)n2)nc1Oc1ccc(F)c(OC(F)(F)F)c1 [Compound 136]
[1]
  Pre-emergence activity level (growth control rate) on Amaranthus retroflexus: 9
  Pre-emergence activity level (growth control rate) on Descurainia sophia: 9
  Pre-emergence activity level (growth control rate) on Digitaria sanguinalis: 9
  Pre-emergence activity level (growth control rate) on Setaria viridis: 9
  Pre-emergence activity level (growth control rate) on Solanum nigrum: 9
  Pre-emergence activity level (growth control rate) on Veronica: 9
Major crops
  Pre-emergence plant damage level (growth control rate) on Corn: 0
  Pre-emergence plant damage level (growth control rate) on Cotton: 0
  Pre-emergence plant damage level (growth control rate) on Soybean: 0

## CCc1ccc(-n2cnc(C(F)(F)F)n2)nc1Oc1cccc(C(F)F)c1 [Compound 137]
[1]
  Pre-emergence activity level (growth control rate) on Amaranthus retroflexus: 9
  Pre-emergence activity level (growth control rate) on Descurainia sophia: 9
  Pre-emergence activity level (growth control rate) on Digitaria sanguinalis: 8 (growth control rate is greater than or equal to 90% and less than 100%)
  Pre-emergence activity level (growth control rate) on Setaria viridis: 9
  Pre-emergence activity level (growth control rate) on Solanum nigrum: 9
  Pre-emergence activity level (growth control rate) on Veronica: 9
Major crops
  Pre-emergence plant damage level (growth control rate) on Corn: 0
  Pre-emergence plant damage level (growth control rate) on Cotton: 0
  Pre-emergence plant damage level (growth control rate) on Soybean: 0

## COCc1ccc(-n2cnc(C(F)(F)F)n2)nc1Oc1cccc(Cl)c1 [Compound 139]
[1]
  Pre-emergence activity level (growth control rate) on Amaranthus retroflexus: 9
  Pre-emergence activity level (growth control rate) on Descurainia sophia: 9
  Pre-emergence activity level (growth control rate) on Digitaria sanguinalis: 9
  Pre-emergence activity level (growth control rate) on Setaria viridis: 9
  Pre-emergence activity level (growth control rate) on Solanum nigrum: 9
  Pre-emergence activity level (growth control rate) on Veronica: 9
Major crops
  Pre-emergence plant damage level (growth control rate) on Corn: 0
  Pre-emergence plant damage level (growth control rate) on Cotton: 0
  Pre-emergence plant damage level (growth control rate) on Soybean: 0

## COCc1ccc(-n2cnc(C(F)(F)C(F)(F)F)n2)nc1Oc1cncc(C(F)(F)F)c1 [Compound 140]
[1]
  Pre-emergence activity level (growth control rate) on Descurainia sophia: 9
  Pre-emergence activity level (growth control rate) on Digitaria sanguinalis: 8 (growth control rate is greater than or equal to 90% and less than 100%)
  Pre-emergence activity level (growth control rate) on Setaria viridis: 9
  Pre-emergence activity level (growth control rate) on Solanum nigrum: 9
  Pre-emergence activity level (growth control rate) on Veronica: 9
Major crops
  Pre-emergence plant damage level (growth control rate) on Corn: 0
  Pre-emergence plant damage level (growth control rate) on Cotton: 0
  Pre-emergence plant damage level (growth control rate) on Soybean: 0

## COCc1ccc(-n2cnc(C(F)(F)C(F)(F)F)n2)nc1Oc1cccc(C(F)(F)F)c1 [Compound 141]
[1]
  Pre-emergence activity level (growth control rate) on Amaranthus retroflexus: 8 (growth control rate is greater than or equal to 90% and less than 100%)
  Pre-emergence activity level (growth control rate) on Descurainia sophia: 9
  Pre-emergence activity level (growth control rate) on Digitaria sanguinalis: 9
  Pre-emergence activity level (growth control rate) on Setaria viridis: 8 (growth control rate is greater than or equal to 90% and less than 100%)
  Pre-emergence activity level (growth control rate) on Solanum nigrum: 9
  Pre-emergence activity level (growth control rate) on Veronica: 9
Major crops
  Pre-emergence plant damage level (growth control rate) on Corn: 0
  Pre-emergence plant damage level (growth control rate) on Cotton: 0
  Pre-emergence plant damage level (growth control rate) on Soybean: 0
